From ChEMBL document CHEMBL5137015, “Design, synthesis, and evaluation of a novel series of mono-indolylbenzoquinones derivatives for the potential treatment of breast cancer” (Eur J Med Chem, 2022)
Activity calls are given as the source filed them. The calls are words filed in the database; no cut-off is given here.

Columns and labels:
A549 = experiment: Antiproliferative activity against human A549 cells assessed as inhibition of cell growth by MTT assay; type: functional, cell-based
[1] = Toxicity in Balb/c mouse xenografted with mouse 4T1 cells assessed as liver lesions at 200 mg/kg administered topically over the tumor surface every two days for 14 days in the presence of cyanoacrylate by H&E staining based histopathological analysis; type: organism-based; conditions: in vivo, topical_or_ocular, 336 h, route top, time 14 day
MDA-MB-231 [2] = experiment: Induction of apoptosis in human MDA-MB-231 cells assessed as late apoptotic cells by measuring red fluorescence at 0.01 to 1 uM by PI staining based fluorescence microscopic analysis; type: functional, cell-based; conditions: dose 0.01-1 µM
[3] = Toxicity in Balb/c mouse implanted with mouse 4T1 cells assessed as kidney lesions at 50 mg/kg administered intratumorally every four days for 14 days by H&E staining based histopathological analysis; type: organism-based; conditions: in vivo, other, 336 h, route it(Intratumoral), time 14 day
MDA-MB-231 [4] = experiment: Induction of apoptosis in human MDA-MB-231 cells assessed as increase in Bcl-2 protein expression at 1 uM incubated for 24 hrs by Western blot analysis; type: functional, cell-based
Mus musculus = experiment: Protection of Balb/c mouse spleen implanted with mouse 4T1 cells at 50 mg/kg administered intratumorally every four days for 14 days in the presence of liquid cyanoacrylate; type: functional, organism-based; conditions: route it(Intratumoral), time 14.0 day
MDA-MB-231 [5] = experiment: Induction of apoptosis in human MDA-MB-231 cells assessed as increase in cytochrome C expression at 0.5 to 3 times of IC50 concentration by Western blot analysis; type: functional, cell-based
4T1 [6] = experiment: Antitumor activity aginst mouse 4T1 cells implanted in Balb/c mouse assessed as nuclei disappearance at 50 mg/kg administered intratumorally every four days for 14 days; type: functional, organism-based; conditions: route it(Intratumoral), time 14.0 day
MDA-MB-231 [7] = experiment: Induction of apoptosis in human MDA-MB-231 cells assessed as increase in Bax protein expression at 1 uM incubated for 24 hrs by Western blot analysis; type: functional, cell-based
MDA-MB-231 [8] = experiment: Induction of apoptosis in human MDA-MB-231 cells assessed as decrease in Bcl-2/Bax ratio at 0.5 to 3 times of IC50 concentration by Western blot analysis; type: functional, cell-based
MDA-MB-231 [9] = experiment: Induction of apoptosis in human MDA-MB-231 cells assessed as nuclear chromatin condensation at 1 uM incubated for 24 hrs by transmission electron microscopic analysis; type: functional, cell-based
[10] = Toxicity in Balb/c mouse implanted with mouse 4T1 cells assessed as kidney lesions at 50 mg/kg, ip administered every two days for 14 days by H&E staining based histopathological analysis; type: organism-based; conditions: in vivo, 336 h, time 14 day
[11] = Toxicity in Balb/c mouse implanted with mouse 4T1 cells assessed as lung lesions at 50 mg/kg, ip administered every two days for 14 days by H&E staining based histopathological analysis; type: organism-based; conditions: in vivo, 336 h, time 14 day
[12] = Toxicity in Balb/c mouse implanted with mouse 4T1 cells assessed as liver lesions at 50 mg/kg, ip administered every two days for 14 days by H&E staining based histopathological analysis; type: organism-based; conditions: in vivo, 336 h, time 14 day
4T1 [13] = experiment: Antitumor activity aginst mouse 4T1 cells implanted in Balb/c mouse assessed as nuclei shrinkage at 50 mg/kg administered intratumorally every four days for 14 days; type: functional, organism-based; conditions: route it(Intratumoral), time 14.0 day
MDA-MB-231 [14] = experiment: Induction of apoptosis in human MDA-MB-231 cells assessed as increase in caspase 3 expression at 0.5 to 3 times of IC50 concentration by Western blot analysis; type: functional, cell-based
[15] = Toxicity in Balb/c mouse implanted with mouse 4T1 cells assessed as liver lesions at 50 mg/kg administered intratumorally every four days for 14 days in the presence of liquid cyanoacrylate by H&E staining based histopathological analysis; type: organism-based; conditions: in vivo, other, 336 h, route it(Intratumoral), time 14 day
[16] = Toxicity in Balb/c mouse implanted with mouse 4T1 cells assessed as lung lesions at 50 mg/kg administered intratumorally every four days for 14 days in the presence of liquid cyanoacrylate by H&E staining based histopathological analysis; type: organism-based; conditions: in vivo, other, 336 h, route it(Intratumoral), time 14 day
MDA-MB-231 [17] = experiment: Induction of apoptosis in human MDA-MB-231 cells assessed as late apoptotic cells by measuring green fluorescence at 0.01 to 1 uM by Annexin V-FITC staining based fluorescence microscopic analysis; type: functional, cell-based; conditions: dose 0.01-1 µM
MDA-MB-231 [18] = experiment: Induction of cell cycle arrest in human MDA-MB-231 cells assessed as increase in G2 phase cells at 10 uM incubated for 24 hrs by PI staining based flow cytometric analysis (reference value: 8.95%); type: functional
[19] = Acute toxicity in mouse assessed as lethal dose measured over 14 days; conditions: in vivo, 336 h, time 14 day
[20] = Toxicity in Balb/c mouse implanted with mouse 4T1 cells assessed as effect on body weight at 50 mg/kg administered intratumorally every four days for 14 days; type: organism-based; conditions: in vivo, other, 336 h, route it(Intratumoral), time 14 day
[21] = Toxicity in Balb/c mouse implanted with mouse 4T1 cells assessed as spleen lesions at 50 mg/kg, ip administered every two days for 14 days by H&E staining based histopathological analysis; type: organism-based; conditions: in vivo, 336 h, time 14 day
[22] = Drug metabolism in Balb/c mouse kidney implanted with mouse 4T1 cells assessed as dechlorination of parent compound causing metabolite formation by LC-MS analysis; type: ADME, tissue-based
4T1 [23] = experiment: Antitumor activity against mouse 4T1 cells implanted in Balb/c mouse assessed as nuclei disappearance at 50 mg/kg administered intratumorally every four days for 14 days in the presence of liquid cyanoacrylate; type: functional, organism-based; conditions: route it(Intratumoral), time 14.0 day
MDA-MB-231 [24] = experiment: Induction of apoptosis in human MDA-MB-231 cells assessed as increase in Bax expression at 0.5 to 3 times of IC50 concentration by Western blot analysis; type: functional, cell-based
MDA-MB-231 [25] = experiment: Induction of apoptosis in human MDA-MB-231 cells assessed as increase in cytochrome C expression at 1 uM incubated for 24 hrs by Western blot analysis; type: functional, cell-based
MDA-MB-231 [26] = experiment: Induction of ROS production in human MDA-MB-231 cells assessed as increase in fluorescence intensity at 1 uM incubated for 24 hrs by DCFH-DA staining based fluorescence analysis; type: functional, cell-based
[27] = Acute toxicity in mouse assessed as death rate ratio at 378 mg/kg, ip measured over 14 days; type: organism-based; conditions: in vivo, 336 h, time 14 day
[28] = Toxicity in Balb/c mouse xenografted with mouse 4T1 cells assessed as spleen lesions at 200 mg/kg administered topically over the tumor surface every two days for 14 days in the presence of cyanoacrylate by H&E staining based histopathological analysis; type: organism-based; conditions: in vivo, topical_or_ocular, 336 h, route top, time 14 day
[29] = Drug metabolism in Balb/c mouse kidney implanted with mouse 4T1 cells assessed as 2-methyl hydroxylation of parent compound causing metabolite formation by LC-MS analysis; type: ADME, tissue-based
MDA-MB-231 [30] = experiment: Induction of apoptosis in human MDA-MB-231 cells assessed as increase in p53 protein expression at 1 uM incubated for 24 hrs by Western blot analysis; type: functional, cell-based
[31] = Toxicity in Balb/c mouse implanted with mouse 4T1 cells assessed as heart lesions at 50 mg/kg administered intratumorally every four days for 14 days by H&E staining based histopathological analysis; type: organism-based; conditions: in vivo, other, 336 h, route it(Intratumoral), time 14 day
MDA-MB-231 [32] = experiment: Induction of apoptosis in human MDA-MB-231 cells assessed as reduction in cell volume at 1 uM incubated for 24 hrs by transmission electron microscopic analysis; type: functional, cell-based
[33] = Toxicity in Balb/c mouse implanted with mouse 4T1 cells assessed as heart lesions at 50 mg/kg administered intratumorally every four days for 14 days in the presence of liquid cyanoacrylate by H&E staining based histopathological analysis; type: organism-based; conditions: in vivo, other, 336 h, route it(Intratumoral), time 14 day
4T1 [34] = experiment: Antitumor activity against mouse 4T1 cells xenografted in Balb/c mouse assessed as tumor growth inhibition at 50 mg/kg administered intratumorally every four days for 14 days; type: functional; design: scale not given: the % may be the effect or the level left; conditions: route it(Intratumoral), time 14 day

In the case of `Cc1[nH]c2ccccc2c1C1=C(Cl)C(=O)C(Cl)=C(N2CCOCC2)C1=O`, the IC50 (A549) is reported as 210 nM, the Activity [1] is reported as “Non-Toxic” and the Activity (MDA-MB-231 [2]) is reported as “Active”. The Activity [3] was “Non-Toxic”, the Activity (MDA-MB-231 [4]) was “Active” and the Activity (Mus musculus) was “Active”. For the same compound, the Activity (MDA-MB-231 [5]) was “Active”, the Activity (4T1 [6]) was “Active” and the Activity (MDA-MB-231 [7]) was “Active”. For the same compound, the Activity (MDA-MB-231 [8]) was “Active”, the Activity (MDA-MB-231 [9]) was “Active” and the Activity [10] was “Non-Toxic”. For the same compound, the Activity [11] was “Non-Toxic”, the Activity [12] was “Non-Toxic” and the Activity (4T1 [13]) was “Active”. The Activity (MDA-MB-231 [14]) was “Active”, the Activity [15] was “Non-Toxic” and the Activity [16] was “Non-Toxic”. The Activity (MDA-MB-231 [17]) was “Active”, the Activity (MDA-MB-231 [18]) was 55.05% and the LD50 [19] was 374 mg/kg. For the same compound, the Activity [20] was “Non-Toxic”, the Activity [21] was “Non-Toxic” and the Drug metabolism [22] was “Metabolite_Detected”. The Activity (4T1 [23]) was “Active”, the Activity (MDA-MB-231 [24]) was “Active” and the Activity (MDA-MB-231 [25]) was “Active”. For the same compound, the Activity (MDA-MB-231 [26]) was “Active”, the Ratio [27] was 0.5 and the Activity [28] was “Non-Toxic”. For the same compound, the Drug metabolism [29] was “Metabolite_Detected”, the Activity (MDA-MB-231 [30]) was “Active” and the Activity [31] was “Non-Toxic”. For the same compound, the Activity (MDA-MB-231 [32]) was “Active”, the Activity [33] was “Non-Toxic” and the Activity (4T1 [34]) was 24.6%.
